Laboratory results as given in patent publication US20240209028A1, “CNP COMPOUNDS” (priority 2022, published 2024).
In brackets after ≈: the same amount, converted by molar mass. Read-outs that look alike come from different tables or passages of the source. Starred links: 1 amine or outer side, 2 acyl side, 3 side chain; linkers in the order of their positions; H or OH if unused. Positions of bridges follow the written chain, without caps; N, C: chain ends. Residues, ends and D or L forms follow the SMILES beside them. *: point of attachment. C18 diacid = O=C(O)CCCCCCCCCCCCCCCCC(=O)*; γGlu = O=C(O)[C@H](CCC(=O)[*:2])N[*:1]; AEEA = NCCOCCOCC(=O)O

Experiments:
[1] = Solubility of CNP compounds at pH 4.0 and pH 6.5; assay type: physicochemical
Outline: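 Freeze-dried peptide was brought to a nominal ≥4000-5000 nmol/mL in 5 mM sodium acetate, 250 mM glycerol (pH 4.0) or in 8 mM sodium phosphate, 23 mg/mL glycerol (pH 6.5 via NaOH titration). Samples were equilibrated at room temperature overnight if undissolved, and supernatant concentration was measured by CAD.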

[2] = molecular target: T1, human natriuretic peptide receptor 2 (hNPR2) (Homo sapiens, UniProt P20594); assay: In vitro hNPR2 activity assay (cGMP GloSensor reporter, HEK293); assay type: cell-based; conditions: potency relative to CNP22 (0065)
T1 construct: expressed in transfected cells; host or cells: HEK293 (ATCC CRL-1573), clone 35, co-transfected with pGloSensor-42F
T1 sequence (P20594 23-1047): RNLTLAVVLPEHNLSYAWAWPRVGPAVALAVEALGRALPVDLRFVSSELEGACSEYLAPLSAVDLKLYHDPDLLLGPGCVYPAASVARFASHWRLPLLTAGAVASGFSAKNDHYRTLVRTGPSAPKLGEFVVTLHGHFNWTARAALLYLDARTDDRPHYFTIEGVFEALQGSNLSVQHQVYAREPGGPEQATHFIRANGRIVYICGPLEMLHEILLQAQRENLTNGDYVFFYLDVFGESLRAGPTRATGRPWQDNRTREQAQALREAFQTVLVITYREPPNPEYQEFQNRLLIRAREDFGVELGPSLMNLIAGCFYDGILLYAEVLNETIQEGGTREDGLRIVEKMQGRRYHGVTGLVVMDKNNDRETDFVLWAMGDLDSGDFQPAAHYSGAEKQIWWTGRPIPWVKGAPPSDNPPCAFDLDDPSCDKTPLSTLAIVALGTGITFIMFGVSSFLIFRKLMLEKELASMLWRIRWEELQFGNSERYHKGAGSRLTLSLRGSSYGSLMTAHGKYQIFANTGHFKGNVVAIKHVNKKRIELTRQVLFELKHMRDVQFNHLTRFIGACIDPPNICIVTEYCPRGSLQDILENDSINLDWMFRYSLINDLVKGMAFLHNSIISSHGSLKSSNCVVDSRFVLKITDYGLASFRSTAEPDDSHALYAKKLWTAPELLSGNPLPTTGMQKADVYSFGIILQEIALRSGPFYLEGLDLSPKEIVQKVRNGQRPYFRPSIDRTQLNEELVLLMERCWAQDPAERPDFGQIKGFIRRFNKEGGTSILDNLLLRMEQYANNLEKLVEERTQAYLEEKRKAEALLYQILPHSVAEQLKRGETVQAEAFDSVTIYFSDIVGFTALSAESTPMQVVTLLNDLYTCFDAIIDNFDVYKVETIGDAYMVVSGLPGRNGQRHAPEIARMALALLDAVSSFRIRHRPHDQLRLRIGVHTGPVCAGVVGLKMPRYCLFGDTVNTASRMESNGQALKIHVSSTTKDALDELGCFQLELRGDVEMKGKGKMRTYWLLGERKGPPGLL
Outline: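 Potency is the EC50 from a four-parameter logistic fit, also expressed relative to the in-plate CNP22 control (×100), with at least two replicates. Compounds (ten concentrations, […], HSA-free diluent with 1% OVA, 0.01% Tween20) were incubated 30 min at 37 °C on HEK293 cells co-expressing hNPR2 and a GloSensor cGMP luciferase. Luminescence detected with Bright-Glo.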

[3] = 8 mM sodium phosphate, 23 mg/mL glycerol, pH 6.5, room temperature, read-out: Solubility at pH 6.5
[4] = 5 mM sodium acetate, 250 mM glycerol, pH 4.0, room temperature, read-out: Solubility at pH 4.0

| SMILES | solubility [1, 3] | hNPR2 0% HSA. [EC50% rel CNP] [2] | solubility [1, 4] |
| --- | --- | --- | --- |
| CC[C@H](C)[C@@H]1NC(=O)[C@H](CCCNC(=N)N)NC(=O)[C@H](CC(=O)O)NC(=O)[C@H](CC(C)C)NC(=O)[C@@H]2CCCN2C(=O)[C@H](CC(C)C)NC(=O)CNC(=O)[C@H](Cc2ccccc2)NC(=O)[C@@H](NC(=O)CNC(=O)[C@H](CCC(N)=O)NC(=O)[C@H](CO)NC(=O)CNC(=O)CNC(=O)[C@H](CCCCN)NC(=O)[C@H](CCCCN)NC(=O)[C@H](CCC(N)=O)NC(=O)[C@H](C)NC(=O)CNC(=O)[C@H](Cc2c[nH]cn2)NC(=O)[C@H](Cc2ccc(O)cc2)NC(=O)COCCOCCNC(=O)COCCOCCNC(=O)COCCOCCNC(=O)COCCOCCNC(=O)CC[C@H](NC(=O)CC[C@H](NC(=O)CCCCCCCCCCCCCCCCC(=O)O)C(=O)O)C(=O)O)CSSC[C@@H](C(=O)O)NC(=O)CNC(=O)[C@H](CC(C)C)NC(=O)CNC(=O)[C@H](CO)NC(=O)[C@H](CC(C)C)NC(=O)[C@H](CO)NC(=O)CNC1=O [compound 1434] ({C18 diacid-γGlu-γGlu-AEEA-AEEA-AEEA-AEEA}-YHGAQKKGGSQGCFGLPLDRIGSLSGLGC-OH; disulfide 13-29) | 8.51 mM (≈ 34.4 mg/mL) | 29.0% |  |
| CC[C@H](C)[C@@H]1NC(=O)[C@H](CCCNC(=N)N)NC(=O)[C@H](CC(=O)O)NC(=O)[C@H](CC(C)C)NC(=O)[C@@H]2CCCN2C(=O)[C@H](CC(C)C)NC(=O)CNC(=O)[C@H](Cc2ccccc2)NC(=O)[C@@H](NC(=O)CNC(=O)[C@H](CCC(N)=O)NC(=O)[C@H](CO)NC(=O)[C@H](CC(C)C)NC(=O)CNC(=O)[C@H](CCCCN)NC(=O)[C@H](CCCCN)NC(=O)[C@H](CCC(N)=O)NC(=O)[C@H](C)NC(=O)CNC(=O)[C@H](CCCCN)NC(=O)[C@H](Cc2ccc(O)cc2)NC(=O)[C@H](CCCCN)NC(=O)[C@H](CCCNC(=N)N)NC(=O)[C@H](C)NC(=O)COCCOCCNC(=O)COCCOCCNC(=O)CC[C@H](NC(=O)CC[C@H](NC(=O)CC[C@H](NC(=O)CC[C@H](NC(=O)CC[C@H](NC(=O)CCCCCCCCCCCCCCCCC(=O)O)C(=O)O)C(=O)O)C(=O)O)C(=O)O)C(=O)O)CSSC[C@@H](C(=O)O)NC(=O)CNC(=O)[C@H](CC(C)C)NC(=O)CNC(=O)[C@H](CO)NC(=O)[C@H](CC(C)C)NC(=O)[C@H](CO)NC(=O)CNC1=O [compound 1453] ({C18 diacid-γGlu-γGlu-γGlu-γGlu-γGlu-AEEA-AEEA}-ARKYKGAQKKGLSQGCFGLPLDRIGSLSGLGC-OH; disulfide 16-32) | 7.88 mM (≈ 35.8 mg/mL) | 33.5% |  |
| CC[C@H](C)[C@@H]1NC(=O)[C@H](CCCNC(=N)N)NC(=O)[C@H](CC(=O)O)NC(=O)[C@H](CC(C)C)NC(=O)[C@@H]2CCCN2C(=O)[C@H](CC(C)C)NC(=O)CNC(=O)[C@H](Cc2ccccc2)NC(=O)[C@@H](NC(=O)CNC(=O)[C@H](CCC(N)=O)NC(=O)[C@H](CO)NC(=O)[C@H](CO)NC(=O)CNC(=O)[C@H](CCCCN)NC(=O)[C@H](CCCCN)NC(=O)[C@H](CCC(N)=O)NC(=O)[C@H](C)NC(=O)CNC(=O)[C@@H]2CCCN2C(=O)[C@H](C)NC(=O)[C@H](CCC(N)=O)NC(=O)CNC(=O)[C@@H]2CCCN2C(=O)[C@H](C)NC(=O)[C@H](CCC(N)=O)NC(=O)CNC(=O)[C@@H]2CCCN2C(=O)[C@H](C)NC(=O)[C@H](CCC(N)=O)NC(=O)CNC(=O)COCCOCCNC(=O)COCCOCCNC(=O)CC[C@H](NC(=O)CCCCCCCCCCCCCCCCC(=O)O)C(=O)O)CSSC[C@@H](C(=O)O)NC(=O)CNC(=O)[C@H](CC(C)C)NC(=O)CNC(=O)[C@H](CO)NC(=O)[C@H](CC(C)C)NC(=O)[C@H](CO)NC(=O)CNC1=O [compound 1457] ({C18 diacid-γGlu-AEEA-AEEA}-GQAPGQAPGQAPGAQKKGSSQGCFGLPLDRIGSLSGLGC-OH; disulfide 23-39) | 8.96 mM (≈ 39.5 mg/mL) | 79.4% |  |
| CC[C@H](C)[C@@H]1NC(=O)[C@H](CCCNC(=N)N)NC(=O)[C@H](CC(=O)O)NC(=O)[C@H](CC(C)C)NC(=O)[C@@H]2CCCN2C(=O)[C@H](CC(C)C)NC(=O)CNC(=O)[C@H](Cc2ccccc2)NC(=O)[C@@H](NC(=O)CNC(=O)[C@H](CCCCN)NC(=O)[C@H](CO)NC(=O)[C@H](CC(C)C)NC(=O)CNC(=O)[C@H](CCCCN)NC(=O)[C@H](CCCCN)NC(=O)[C@H](CCC(N)=O)NC(=O)[C@H](C)NC(=O)CNC(=O)[C@H](CCCCN)NC(=O)[C@H](Cc2ccc(O)cc2)NC(=O)[C@H](CCCCN)NC(=O)[C@H](CCCNC(=N)N)NC(=O)[C@H](C)NC(=O)COCCOCCNC(=O)COCCOCCNC(=O)CC[C@H](NC(=O)CC[C@H](NC(=O)CC[C@H](NC(=O)CC[C@H](NC(=O)CC[C@H](NC(=O)CCCCCCCCCCCCCCCCC(=O)O)C(=O)O)C(=O)O)C(=O)O)C(=O)O)C(=O)O)CSSC[C@@H](C(=O)O)NC(=O)CNC(=O)[C@H](CC(C)C)NC(=O)CNC(=O)[C@H](CO)NC(=O)[C@H](CC(C)C)NC(=O)[C@H](CO)NC(=O)CNC1=O [compound 1470] ({C18 diacid-γGlu-γGlu-γGlu-γGlu-γGlu-AEEA-AEEA}-ARKYKGAQKKGLSKGCFGLPLDRIGSLSGLGC-OH; disulfide 16-32) | 0.595 mM (≈ 2.7 mg/mL) | 23.9% | 6.48 mM (≈ 29.4 mg/mL) |
| CC[C@H](C)[C@@H]1NC(=O)[C@H](CCCNC(=N)N)NC(=O)[C@H](CC(=O)O)NC(=O)[C@H](CC(C)C)NC(=O)[C@@H]2CCCN2C(=O)[C@H](CC(C)C)NC(=O)CNC(=O)[C@H](Cc2ccccc2)NC(=O)[C@@H](NC(=O)CNC(=O)[C@H](CO)NC(=O)[C@H](CO)NC(=O)[C@H](CC(C)C)NC(=O)CNC(=O)[C@H](CCCCN)NC(=O)[C@H](CCCCN)NC(=O)[C@H](CCC(N)=O)NC(=O)[C@H](C)NC(=O)CNC(=O)[C@H](CCCCN)NC(=O)[C@H](Cc2ccc(O)cc2)NC(=O)[C@H](CCCCN)NC(=O)[C@H](CCCNC(=N)N)NC(=O)[C@H](C)NC(=O)[C@H](CCC(N)=O)NC(=O)[C@@H]2CCCN2C(=O)[C@H](Cc2c[nH]cn2)NC(=O)[C@H](CCC(=O)O)NC(=O)[C@H](CCC(N)=O)NC(=O)COCCOCCNC(=O)COCCOCCNC(=O)CC[C@H](NC(=O)CC[C@H](NC(=O)CC[C@H](NC(=O)CC[C@H](NC(=O)CCCCCCCCCCCCCCCCC(=O)O)C(=O)O)C(=O)O)C(=O)O)C(=O)O)CSSC[C@@H](C(=O)O)NC(=O)CNC(=O)[C@H](CC(C)C)NC(=O)CNC(=O)[C@H](CO)NC(=O)[C@H](CC(C)C)NC(=O)[C@H](CO)NC(=O)CNC1=O [compound 1473] ({C18 diacid-γGlu-γGlu-γGlu-γGlu-AEEA-AEEA}-QEHPQARKYKGAQKKGLSSGCFGLPLDRIGSLSGLGC-OH; disulfide 21-37; C-terminus assumed) | 1.76 mM (≈ 8.8 mg/mL) | 107.7% | 5.83 mM (≈ 29.1 mg/mL) |
| CC[C@H](C)[C@@H]1NC(=O)[C@H](CCCNC(=N)N)NC(=O)[C@H](CC(=O)O)NC(=O)[C@H](CC(C)C)NC(=O)[C@@H]2CCCN2C(=O)[C@H](CC(C)C)NC(=O)CNC(=O)[C@H](Cc2ccccc2)NC(=O)[C@@H](NC(=O)CNC(=O)[C@H](CCCCN)NC(=O)[C@H](CO)NC(=O)[C@H](CC(C)C)NC(=O)CNC(=O)[C@H](CCCCN)NC(=O)[C@H](CCCCN)NC(=O)[C@H](CCC(N)=O)NC(=O)[C@H](C)NC(=O)CNC(=O)[C@H](CCCCN)NC(=O)[C@H](Cc2ccc(O)cc2)NC(=O)[C@H](CCCCN)NC(=O)[C@H](CCCNC(=N)N)NC(=O)[C@H](C)NC(=O)[C@H](CCC(N)=O)NC(=O)[C@@H]2CCCN2C(=O)[C@H](Cc2c[nH]cn2)NC(=O)[C@H](CCC(=O)O)NC(=O)[C@H](CCC(N)=O)NC(=O)COCCOCCNC(=O)COCCOCCNC(=O)CC[C@H](NC(=O)CC[C@H](NC(=O)CC[C@H](NC(=O)CC[C@H](NC(=O)CC[C@H](NC(=O)CCCCCCCCCCCCCCCCC(=O)O)C(=O)O)C(=O)O)C(=O)O)C(=O)O)C(=O)O)CSSC[C@@H](C(=O)O)NC(=O)CNC(=O)[C@H](CC(C)C)NC(=O)CNC(=O)[C@H](CO)NC(=O)[C@H](CC(C)C)NC(=O)[C@H](CO)NC(=O)CNC1=O [compound 1474] ({C18 diacid-γGlu-γGlu-γGlu-γGlu-γGlu-AEEA-AEEA}-QEHPQARKYKGAQKKGLSKGCFGLPLDRIGSLSGLGC-OH; disulfide 21-37; C-terminus assumed) | 0.969 mM (≈ 5 mg/mL) | 62.5% | 6.38 mM (≈ 32.9 mg/mL) |
